The values that follow come from US4311699A, “Aminoacid derivatives of cephalosporin compounds” (priority 1980, dated 1982).

≈ marks a conversion by molar mass, not a printed value.

Assay in all cases: in vitro antibacterial activity, minimal inhibitory concentration
Common to all, as to format: cell-based

For one experiment, the system named is Pseudomonas BRK 12-4-4. The settings on record: Pseudomonas BRK 12-4-4, in vitro; for MIC: BRK1244. The text has this: (§1) The compounds of the invention are new chemical compounds that are used as pharmacological agents and especially as broad spectrum antibacterial agents. They are active in vitro against strains of both gram-positive and gram-negative bacteria.
(§2) Minimal Inhibitory Concentration (μg/ml)

The next experiment has as its system Entero. cloacae. The settings on record: for MIC: Enterobacter cloacae.
Text: as §1, §2

In the next experiment the test system is Serr. marces.
Text: as §1, §2

A further experiment has as its system Pseudomonas #28. To be noted: Pseudomonas #28, in vitro; for MIC: read-out: Minimal Inhibitory Concentration.
Text: as §1, §2

In a further experiment the test system is Strep. fec.
Text: as §1, §2

The test system of another experiment is Klebs. pneu.
Text: as §1, §2

The next experiment has as its system Staph. aureus UC-76. To be noted: Staph. aureus UC-76, in vitro; for MIC: Staphylococcus aureus, UC76.
Text: as §1, §2

The next experiment deals with E. coli Vogel. The settings on record: for MIC: Escherichia coli.
Text: as §1, §2

Another experiment deals with Prot. vulg.
Text: as §1, §2

The test system of a further experiment is E. coli Brig. To be noted: for MIC: Escherichia coli.
Text: as §1, §2

A further experiment relates to Staph. aureus S18733. The settings on record: for MIC: Staphylococcus aureus.
Text: as §1, §2

The subject of the next experiment is Pseudomonas UI 18. The settings on record: Pseudomonas UI 18, in vitro; for MIC: UI18.
Text: as §1, §2

For the compound `CC(=O)N1C[C@H](O)C[C@H]1C(=O)Nc1ccc(-c2ncc(C(=O)N[C@@H](C(=O)NC3C(=O)N4C(C(=O)O)=C(CSc5nnnn5C)CS[C@H]34)c3ccccc3)c(O)n2)cc1` (stereo partly drawn) [Example 30, N-[2[4-(N-Acetyl-L-hydroxyprolylamino)phenyl]-4-hydroxy-5-pyrimidinylcarbonyl]-7-[D-2-amino2-phenylacetamido]-3-[[(1-methyl-1H-tetrazol-5-yl)thio]methyl]-3-cephem-4-carboxylic acid], the “Minimal Inhibitory Concentration” value in the experiment with Pseudomonas BRK 12-4-4 is 12.5 µg/mL; in the experiment on Entero. cloacae, 6.3 µg/mL; with Serr. marces., above 50 µg/mL; in the experiment with Pseudomonas #28, 6.3 µg/mL; in the experiment with Strep. fec. it was above 50 µg/mL; with Klebs. pneu., 3.1 µg/mL. For the same compound, the “Minimal Inhibitory Concentration” value with Staph. aureus UC-76 was 3.1 µg/mL; in the experiment with E. coli Vogel, 3.1 µg/mL; with Prot. vulg., 25 µg/mL; in the experiment with E. coli Brig, 12.5 µg/mL; in the experiment with Staph. aureus S18733, 12.5 µg/mL; in the experiment on Pseudomonas UI 18, 6.3 µg/mL.

With `CC(=O)OCC1=C(C(=O)O)N2C(=O)C(NC(=O)[C@H](NC(=O)c3cnc(-c4ccc(NC(=O)[C@@H]5C[C@@H](O)CN5C(C)=O)cc4)nc3O)c3ccccc3)[C@H]2SC1` (stereo partly drawn) [Example 15, N-[2-[4-(N-Acetyl-L-hydroxyprolylamino)phenyl]-4-hydroxy-5-pyrimidinylcarbonyl]-7-[D-2-amino-2-phenylacetamido]-3-acetoxymethyl-3-cephem-4-carboxylic acid], the “Minimal Inhibitory Concentration” value is 12.5 µg/mL in the experiment with Pseudomonas BRK 12-4-4; above 50 µg/mL in the experiment on Entero. cloacae; above 50 µg/mL with Serr. marces.; 3.1 µg/mL in the experiment with Pseudomonas #28; 25 µg/mL with Strep. fec.; 12.5 µg/mL in the experiment with Klebs. pneu.. The “Minimal Inhibitory Concentration” value with Staph. aureus UC-76 turned out to be 1.6 µg/mL; in the experiment on E. coli Vogel, 6.3 µg/mL; with Prot. vulg., 50 µg/mL; with E. coli Brig, 50 µg/mL; with Staph. aureus S18733, 6.3 µg/mL; with Pseudomonas UI 18, 3.1 µg/mL.

Regarding `CC(=O)NCCCC(=O)Nc1ccc(-c2ncc(C(=O)N[C@@H](C(=O)NC3C(=O)N4C(C(=O)O)=C(CSc5nnnn5C)CSC34)c3ccccc3)c(O)n2)cc1` (stereo partly drawn) [Example 27, N-[2-[4-(N-Acetyl-aminobutyrylamino)phenyl]-4-hydroxy-5-pyrimidinylcarbonyl]-7-[D-2-amino-2-phenylacetamido]-3-[[(1-methyl-1H-tetrazol-5-yl)thio]methyl]-3-cephem-4-carboxylic acid], the MIC with Pseudomonas BRK 12-4-4 worked out at 12.5 µg/mL (≈ 15.6 µM); against Entero. cloacae, 6.3 µg/mL (≈ 7.86 µM); against Serr. marces. it was 25 µg/mL (≈ 31.2 µM); in the experiment on Pseudomonas #28 it was 3.1 µg/mL (≈ 3.87 µM); in the experiment on Strep. fec., 25 µg/mL (≈ 31.2 µM); against Klebs. pneu., 1.6 µg/mL (≈ 2 µM). For the same compound, the MIC in the experiment with Staph. aureus UC-76 was 1.6 µg/mL (≈ 2 µM); with E. coli Vogel it was 1.6 µg/mL (≈ 2 µM); against Prot. vulg., 12.5 µg/mL (≈ 15.6 µM); in the experiment with E. coli Brig, 12.5 µg/mL (≈ 15.6 µM); in the experiment on Staph. aureus S18733 it was 6.3 µg/mL (≈ 7.86 µM); against Pseudomonas UI 18, 6.3 µg/mL (≈ 7.86 µM).

Turning to `NC(=O)CC[C@H](N)C(=O)Nc1ccc(-c2ncc(C(=O)N[C@@H](C(=O)NC3C(=O)N4C(C(=O)O)=C(CSc5nnnn5CC(=O)O)CSC34)c3ccccc3)c(O)n2)cc1` (stereo partly drawn) [Example 41, N-[2-[4-(L-Glutaminylamino)phenyl]-4-hydroxy-5-pyrimidinylcarbonyl]-7-[D-2-amino-2-phenylacetamido]-3-[[(1-carboxymethyl-1H-tetrazol-5-yl)thio]methyl]-3-cephem-4-carboxylic acid], the MIC against Pseudomonas BRK 12-4-4 was 12.5 µg/mL (≈ 14.8 µM); in the experiment with Entero. cloacae, 12.5 µg/mL (≈ 14.8 µM); against Serr. marces. it was 50 µg/mL (≈ 59 µM); in the experiment with Pseudomonas #28 it was 12.5 µg/mL (≈ 14.8 µM); against Strep. fec., above 50 µg/mL; with Klebs. pneu. it was 3.1 µg/mL (≈ 3.66 µM). Also, the MIC in the experiment on Staph. aureus UC-76 was determined as 12.5 µg/mL (≈ 14.8 µM); against E. coli Vogel it was 3.1 µg/mL (≈ 3.66 µM); with Prot. vulg., 1.6 µg/mL (≈ 1.89 µM); against E. coli Brig it was 12.5 µg/mL (≈ 14.8 µM); against Staph. aureus S18733, 25 µg/mL (≈ 29.5 µM); in the experiment on Pseudomonas UI 18 it was 12.5 µg/mL (≈ 14.8 µM).
